Patent publication US20250109127A1, “METHODS OF USE OF PHENOXYPROPYLAMINE COMPOUNDS TO TREAT DEPRESSION” (Minerva Neurosciences, Inc., priority 2013, published 2025)
“And” between values parts separate entries of the source, which are not always exact repeats. Equal values may be shown once. Where a name gives a salt, the structure may show the parent alone.

Test system: 5-HIAA release in the rat prefrontal cortex
Assay: Microdialysis: 5-HIAA release in prefrontal cortex after I.P. administration
Format: in vivo
Conditions: for 5-HIAA release (% of basal levels) measured in dialysates, MEAN / 5-HIAA (% of respective basal) MEAN: n = 8; for 5-HIAA release (% of basal levels) measured in dialysates: individual animals, hydrochloride, 3 mg/kg; for 5-HIAA (% of respective basal) MEAN: SON-117 group 0.1 mg/kg I.P.
Experimental: The aim of the study was to evaluate, using microdialysis, the effects of an intraperitoneal (I.P.) administration in rats of three different doses of SON-117 on dopamine and its metabolites, serotonin and its metabolite (5-HIAA), and norepinephrine levels in prefrontal cortex.
Thirty-two adult male Wistar rats were used for the whole study (4 groups of eight animals planned for the study, Table 1).
Surgery was performed on rats weighing about 300 g at the beginning of the experiments. Rats were anaesthetized with Ketamine (50 mg/kg) & Xylazine (15 mg/kg) by intramuscular administration. The animals were placed in a stereotaxic apparatus in the flat-skull position at a constant setting of −3.3 mm between ear bars and the incisor bar. The animals were treated with a local anesthesic (xylocaine 1%, Astra Zeneca) and an analgesic (Temgesic, from Schering Plough, 0.05 mg/kg, s.c.). A rostrocaudal midline incision was made with a lancet to expose the dorsal skull surface. The “stereotaxic zero” was defined by the Bregma in accordance with Paxinos and Watson's atlas (1986). A hole was drilled in the skull with a drill and the meninges were pierced with a sterile needle to implant a CMA12 guide cannula which later received the dialysis probe.
Coordinates used for implanting guide cannula in prefrontal cortex from Bregma were anteroposterior 3.7 mm, mediolateral 0.8 mm, and dorsoventral −2 mm (top of the probe was at −5 mm). The guide cannula was fixed to the skull with two stainless steel screws (1.88 mm outside diameter) anchored. An application of dental cement was added. A plastic collar allowed each animal to be tethered to a Swivel assembly of the CMA 120 awake animal system. Following surgery, rats were kept in individual cages and allowed to recover for a minimum of 3-5 days before the experimentation. The rats were handled and put in plastic bowl for 10 min at least every day to habituate the animals to their new environment for the dialysis. An I.P. administration with saline was also performed every day.
Dialysis probes (CMA12/3 mm, membrane, 20 kD cut-off, Carnegie Medicine, Stockholm, Sweden), were carefully washed before inserting into the guide cannula. The wash was performed with the artificial cerebrospinal fluid (aCSF) medium (NaCl 147 mM, KCl 2.7 mM, CaCl2 1.2 mM, MgCl2 0.85 mM) at room temperature. The dialysis system was then equilibrated at 20° C. at a perfusion rate of 1 μl/min with a Carnegie pump (CMA100). All catheters (FEP tubing, internal volume of 1.2 μl/10 cm, and tubing adaptors) used for microdialysis were treated in the same conditions.
The probes duly prepared were inserted into the guide cannula and the CMA120 Swivel assembly secured to the animal using a plastic collar. Flow through the dialysis probe with aCSF was maintained at a rate of 1 μl/min during the whole experimentation. The first four fractions (corresponding to 2 hours) were discarded to avoid the effects of parenchymal disturbance and to ensure that an approximate steady-state level was reached. Fractions were then collected over a period of 8.5 h during which time the animals remained quiet. The dialysates were automatically collected with an autosampler (microfraction collector CMA 140, Carnegie Medicin) and stored at −80° C. until analysis. […] Perfusion was then maintained for 7 hours with aCSF. The dialysates (30 μl) were collected into 300 μl vials, transferred into dry ice and then kept frozen (−80° C.) until analysis. Frozen samples were shipped to a partner for analysis. At the end of the microdialysis study, a PBS with colored ink was perfused through the probe in order to visualize the dialyzed area.
Catecholamine assay: Concentrations of dopamine, DOPAC, HVA, 5-HIAA, 5-HT, and norepinephrin were determined for each sample by HPLC coupled with electrochemical detection.

[1] = SON-117 3 mg/kg IP, T1 h 30-T2 h
[2] = SON-117 3 mg/kg IP, T1 h-T1 h 30
[3] = SON-117 3 mg/kg IP, T2 h 30-T3 h
[4] = SON-117 3 mg/kg IP, T2 h-T2 h 30
[5] = SON-117 3 mg/kg IP, T3 h 30-T4 h
[6] = SON-117 3 mg/kg IP, T3 h-T3 h 30
[7] = SON-117 3 mg/kg IP, T4 h 30-T5 h
[8] = SON-117 3 mg/kg IP, T4 h-T4 h 30
[9] = SON-117 3 mg/kg IP, T5 h 30-T6 h
[10] = SON-117 3 mg/kg IP, T5 h-T5 h 30
[11] = SON-117 3 mg/kg IP, T6 h 30-T7 h
[12] = SON-117 3 mg/kg IP, T6 h-T6 h 30

Structure (SMILES): Cc1nnc(-c2cc3c(OC[C@@H](O)CN4CCC(c5ccc(Cl)c(Cl)c5)CC4)cccc3o2)o1 [SON-117, (S)-1-(4-(3,4-dichlorophenyl)piperidino)-3-(2-(5-methyl-1,3,4-oxadiazol-2-yl)benzo(b)furan-4-yloxy)-2-propanol hydrochloride]
- 5-HIAA release (% of basal levels) measured in dialysates, MEAN (SON-117 3 mg/kg IP, T0-T30 min): 100.01 % of basal levels
- 5-HIAA release (% of basal levels) measured in dialysates, MEAN (SON-117 3 mg/kg IP, T30-T1 h): 103.84 % of basal levels
- 5-HIAA release (% of basal levels) measured in dialysates (SON-117 3 mg/kg IP, T30-T1 h): 107.55 % of basal levels and 89.33 % of basal levels and 88.65 % of basal levels and 110.35 % of basal levels and 117.87 % of basal levels and 100.51 % of basal levels and 111.18 % of basal levels and 105.33 % of basal levels
- 5-HIAA release (% of basal levels) measured in dialysates, MEAN [1]: 88.78 % of basal levels
- 5-HIAA release (% of basal levels) measured in dialysates [1]: 94.24 % of basal levels and 92.41 % of basal levels and 78.82 % of basal levels and 101.67 % of basal levels and 75.13 % of basal levels and 85.33 % of basal levels and 91.45 % of basal levels and 91.21 % of basal levels
- 5-HIAA release (% of basal levels) measured in dialysates, MEAN [2]: 98.52 % of basal levels
- 5-HIAA release (% of basal levels) measured in dialysates [2]: 108.67 % of basal levels and 95.26 % of basal levels and 83.80 % of basal levels and 110.78 % of basal levels and 108.78 % of basal levels and 87.31 % of basal levels and 96.27 % of basal levels and 97.27 % of basal levels
- 5-HIAA release (% of basal levels) measured in dialysates, MEAN [3]: 84.99 % of basal levels
- 5-HIAA release (% of basal levels) measured in dialysates [3]: 110.25 % of basal levels and 75.66 % of basal levels and 71.07 % of basal levels and 93.25 % of basal levels and 73.18 % of basal levels and 83.94 % of basal levels and 86.24 % of basal levels and 86.32 % of basal levels
- 5-HIAA release (% of basal levels) measured in dialysates, MEAN [4]: 85.83 % of basal levels
- 5-HIAA release (% of basal levels) measured in dialysates [4]: 99.74 % of basal levels and 84.01 % of basal levels and 68.40 % of basal levels and 89.07 % of basal levels and 81.80 % of basal levels and 77.11 % of basal levels and 98.05 % of basal levels and 88.46 % of basal levels
- 5-HIAA release (% of basal levels) measured in dialysates, MEAN [5]: 82.25 % of basal levels
- 5-HIAA release (% of basal levels) measured in dialysates [5]: 103.09 % of basal levels and 75.36 % of basal levels and 71.57 % of basal levels and 91.17 % of basal levels and 72.73 % of basal levels and 78.31 % of basal levels and 82.53 % of basal levels and 83.23 % of basal levels
- 5-HIAA release (% of basal levels) measured in dialysates, MEAN [6]: 83.71 % of basal levels
- 5-HIAA release (% of basal levels) measured in dialysates [6]: 100.53 % of basal levels and 78.33 % of basal levels and 73.76 % of basal levels and 91.10 % of basal levels and 69.55 % of basal levels and 76.15 % of basal levels and 84.48 % of basal levels and 95.78 % of basal levels
- 5-HIAA release (% of basal levels) measured in dialysates, MEAN [7]: 75.41 % of basal levels
- 5-HIAA release (% of basal levels) measured in dialysates [7]: 90.13 % of basal levels and 63.71 % of basal levels and 68.51 % of basal levels and 75.52 % of basal levels and 72.02 % of basal levels and 83.31 % of basal levels and 83.67 % of basal levels and 66.44 % of basal levels
- 5-HIAA release (% of basal levels) measured in dialysates, MEAN [8]: 77.54 % of basal levels
- 5-HIAA release (% of basal levels) measured in dialysates [8]: 91.08 % of basal levels and 55.23 % of basal levels and 70.28 % of basal levels and 91.20 % of basal levels and 65.52 % of basal levels and 74.09 % of basal levels and 86.17 % of basal levels and 86.73 % of basal levels
- 5-HIAA release (% of basal levels) measured in dialysates, MEAN [9]: 71.99 % of basal levels
- 5-HIAA release (% of basal levels) measured in dialysates [9]: 82.54 % of basal levels and 68.32 % of basal levels and 64.58 % of basal levels and 71.77 % of basal levels and 60.86 % of basal levels and 67.49 % of basal levels and 79.74 % of basal levels and 80.63 % of basal levels
- 5-HIAA release (% of basal levels) measured in dialysates, MEAN [10]: 72.53 % of basal levels
- 5-HIAA release (% of basal levels) measured in dialysates [10]: 84.10 % of basal levels and 66.07 % of basal levels and 66.30 % of basal levels and 74.75 % of basal levels and 64.08 % of basal levels and 74.08 % of basal levels and 79.04 % of basal levels and 71.85 % of basal levels
- 5-HIAA release (% of basal levels) measured in dialysates, MEAN [11]: 73.41 % of basal levels
- 5-HIAA release (% of basal levels) measured in dialysates [11]: 83.14 % of basal levels and 67.51 % of basal levels and 58.65 % of basal levels and 82.71 % of basal levels and 65.19 % of basal levels
- 5-HIAA release (% of basal levels) measured in dialysates, MEAN [12]: 69.60 % of basal levels
- 5-HIAA release (% of basal levels) measured in dialysates [12]: 74.73 % of basal levels and 64.32 % of basal levels and 54.46 % of basal levels and 81.53 % of basal levels and 68.15 % of basal levels and 73.95 % of basal levels and 70.08 % of basal levels
- 5-HIAA release (% of basal levels) measured in dialysates, MEAN (SON-117 3 mg/kg IP, T-30 min-T0 (pre-administration)): 102.90 % of basal levels
- 5-HIAA release (% of basal levels) measured in dialysates, MEAN (SON-117 3 mg/kg IP, T-1 h 30-T-1 h (pre-administration)): 94.73 % of basal levels
- 5-HIAA release (% of basal levels) measured in dialysates, MEAN (SON-117 3 mg/kg IP, T-1 h-T-30 min (pre-administration)): 102.37 % of basal levels
- 5-HIAA concentration in prefrontal cortex, significant and stable decrease, max. (SON-117 3 mg/kg IP, from 2 h to 7 h): 72%
- levels of 5-HIAA compared to the citalopram treated group (significant) (SON-117 3 mg/kg, at 3 h and 3.5 h): higher
- 5-HIAA (% of respective basal) MEAN (T0-T30 min): 94.78 % of respective basal
- 5-HIAA (% of respective basal) MEAN (T30-T1 h): 114.88 % of respective basal
- 5-HIAA (% of respective basal) MEAN (T1 h 30-T2 h): 102.18 % of respective basal
- 5-HIAA (% of respective basal) MEAN (T1 h-T1 h 30): 119.57 % of respective basal
- 5-HIAA (% of respective basal) MEAN (T2 h 30-T3 h): 94.10 % of respective basal
- 5-HIAA (% of respective basal) MEAN (T2 h-T2 h 30): 92.09 % of respective basal
- 5-HIAA (% of respective basal) MEAN (T3 h 30-T4 h): 94.62 % of respective basal
- 5-HIAA (% of respective basal) MEAN (T3 h-T3 h 30): 92.14 % of respective basal
- 5-HIAA (% of respective basal) MEAN (T4 h 30-T5 h): 97.11 % of respective basal
- 5-HIAA (% of respective basal) MEAN (T4 h-T4 h 30): 108.99 % of respective basal
- 5-HIAA (% of respective basal) MEAN (T5 h 30-T6 h): 90.37 % of respective basal
- 5-HIAA (% of respective basal) MEAN (T5 h-T5 h 30): 96.07 % of respective basal
- 5-HIAA (% of respective basal) MEAN (T6 h 30-T7 h): 92.61 % of respective basal
- 5-HIAA (% of respective basal) MEAN (T6 h-T6 h 30): 92.22 % of respective basal
- 5-HIAA (% of respective basal) MEAN (T-30 min-T0 (before administration)): 101.47 % of respective basal
- 5-HIAA (% of respective basal) MEAN (T-1 h 30-T-1 h (before administration)): 98.52 % of respective basal
- 5-HIAA (% of respective basal) MEAN (T-1 h-T-30 min (before administration)): 100.01 % of respective basal
